From patent publication US9320773B2, “Compounds and therapeutic applications related to inhibition of dendritic cell immunoreceptor (DCIR) activity and signaling events” (priority 2010, dated 2016)
Non-standard residues stand in square brackets, D forms with d. Residues, ends and D or L forms follow the SMILES beside them. *: point of attachment. pY = N[C@@H](Cc1ccc(OP(=O)(O)O)cc1)C(=O)O; pT = C[C@@H](OP(=O)(O)O)[C@H](N)C(=O)O; Cbz = O=C(OCc1ccccc1)*; CH2F = FC*

Legend:
[1] = test system: HIV-1 NL4-3 in Raji-CD4-DCIR cells; test: HIV-1 binding/entry assay in Raji-CD4-DCIR cells (cell-associated p24 ELISA); format: cell-based; conditions: for HIV-1 binding/entry: cells pretreated with inhibitor 10 min, pulsed with NL4-3 60 min, result in words; for Binding/entry: Table 3, pharmacological inhibitors, symbols not defined
Method: FIG. 2A: Raji-CD4 and Raji-CD4-DCIR cells were either left untreated or treated with SSG (100 μg/ml) for 10 min at 37° C. Thereafter, cells were pulsed with NL4-3 for 60 min. After three washes with PBS to remove non-adsorbed virus, cell-associated virus was quantified by measuring the p24 content. Data shown correspond to the means±SD of triplicate samples from three combined independent experiments. The asterisk denotes statistically significant data (*, P<0.05; **, P<0.01). FIG. 2B: Cells were either left untransfected or transfected with a sense or antisense oligonucleotide specific for the signalling protein of interest. Next, cells were pulsed with NL4-3 for 60 min. After three washes with PBS to eliminate unbound virus, cell-associated virus was quantified by measuring the p24 content. Data shown correspond to the means±SD of triplicate samples from three combined independent experiments. The asterisk denotes statistically significant data (*, P<0.05; **, P<0.01). After gene silencing, the diminution of the targeted protein was verified by western blots, provided as an insert for each graph.
Where indicated, parental Raji-CD4 cells (DCIR-negative) or Raji-CD4-DCIR transfectants (1×10^6) were pretreated with the indicated amount of a pharmacological inhibitor for 10 min or transfected with sense or antisense oligonucleotides as described below. Cells were then pulsed with NL4-3 (100 ng of p24) for 60 min at 37° C. Next the virus-cell mixture was washed 3 times with PBS to remove unbound virus and resuspended in PBS containing 1% BSA. To assess binding/entry, the p24 content was determined by our in-house ELISA assay^33.
Raji-CD4 and Raji-CD4-DCIR cells (1×10^6 cells) were washed with OptiMEM (Invitrogen Life Technologies) without serum and antibiotics. The phosphorothioate oligodeoxynucleotides (Listed in Table 1) (Invitrogen Life Technologies) were transfected at a final concentration of 10 μM/well^35 using Oligofectamine according to the manufacturer's instructions (Invitrogen Life Technologies). Silencing efficiency was monitored by western blot analysis.

[2] = test system: HIV-1 NL4-3 in Raji-CD4-DCIR cells; test: HIV-1 infection assay in Raji-CD4-DCIR cells, real-time PCR of spliced Tat mRNA; format: cell-based; conditions: Table 3, pharmacological inhibitors; symbols not defined
Method: FIG. 6A: Raji-CD4 and Raji-CD4-DCIR were either left untreated or preincubated with tyrosine phosphatase inhibitor SSG (100 μg/ml); Syk inhibitor piceatannol (10 μM); Src inhibitor PP2 (10 μM); classical PKC inhibitor Gö6976 (1 μM); MAPK p38 inhibitor SB203580 (2 μM), MAP kinase inhibitor PD98059 ([…]) for 10 min. FIG. 6B: Raji-CD4 and Raji-CD4-DCIR were treated with Oligofectamine and then either left untreated or exposed to a sense or an antisense oligonucleotide against different signalling proteins during 5 hours. Next, cells were exposed to NL4-3 for 24 hours. Virus infection was determined by real-time PCR of spliced Tat mRNA. Data shown correspond to the means±SD of triplicate samples from three independent experiments. The asterisk denotes statistically significant data (*, P<0.05; ***, P<0.001).
For the infection assay performed before measuring Tat mRNA, Raji-CD4 and Raji-CD4-DCIR cells were treated with the indicated inhibitor or transfected with the indicated oligonucleotide (as described below). Cells were then pulsed with NL4-3 during 24 hours. […] The expression level of Tat mRNA was measured by real-time PCR, as described below.
Expression levels of TAT splice transcripts were determined using a Rotor-Gene™ system (Corbett Life Science). […] After elution, the amount and quality of RNA was assessed by measuring the absorbance at 260 and 280 nm. […]

[3] = test system: DCIR expression in CD4+ T cells; test: HIV-1-mediated induction of DCIR expression in CD4+ T cells (flow cytometry); format: cell-based, human; conditions: for HIV-1-mediated DCIR expression: cells pre-treated before virus infection, 3 days, result in words
Method: Mitogen-activated CD4^+ T cells (1×10^6) were first either left untreated or treated for 1 h with the caspase inhibitor Z-VAD-FMK (50 nM), after which HIV-1 was added (100 ng of p24), where indicated. DCIR expression was monitored 3 days later by flow cytometry. Data shown represent the means±SD of triplicate samples from three independent experiments.
Cells (1×10^6) were first either left untreated or treated for 1 h with NAC, after which HIV-1 (100 ng of p24) was added. DCIR expression was monitored 3 days later by flow cytometry. Expression of DCIR is shown as a dotted line, whereas the continuous line represents staining obtained with an isotype-matched irrelevant control Ab. Data shown correspond to a single experiment representative of 3 independent experiments.
Cell surface expression of DCIR was monitored by flow cytometric analysis (Epics ELITE ESP, Coulter Electronics, Burlington, Canada). Cells (1×10^6 cells) were incubated for 30 min with a pool of human serum to block the unspecific binding. After washing, the cells were incubated with PE-labeled anti-DCIR (0.25 μg) for 45 min at 4° C. and then washed twice with PBS and 0.5% BSA. Non-specific staining was determined by using an isotype-matched irrelevant control antibody. After two final washes with PBS, cells were fixed in 2% paraformaldehyde for 30 min and analyzed.

CD4+ T cells = test: Cell toxicity / viability of CD4+ T cells; format: cell-based, human; conditions: HIV-1-infected CD4+ T cells; data not shown
[4] = test system: DCIR expression in CD4+ T cells; test: DCIR expression in CD4+ T cells after H2O2 or other apoptosis inducers (flow cytometry); format: cell-based, human
Method: Next, DCIR expression was assessed by flow cytometry. Data shown represent the ratio of DCIR expression over basal expression. The ratio is calculated from the means±SD of triplicate samples from three independent experiments. […] FIG. 16A: […] Expression of DCIR is shown as a dotted line, whereas the continuous line represents staining obtained with an isotype-matched irrelevant control Ab. Data shown correspond to a single experiment representative of 3 independent experiments. FIG. 16B: […] Thereafter, DCIR surface expression and caspase activation were monitored by flow cytometric analysis using a double-staining method consisting of FITC-VAD-FMK followed by the R-PE-conjugated anti-DCIR. Data shown correspond to a single experiment representative of 4 independent experiments. Cell surface expression of DCIR was monitored by flow cytometric analysis (Epics ELITE ESP, Coulter Electronics, Burlington, Canada). […] After washing, the cells were incubated with PE-labeled anti-DCIR (0.25 μg) for 45 min at 4° C. and then washed twice with PBS and 0.5% BSA. Non-specific staining was determined by using an isotype-matched irrelevant control antibody. After two final washes with PBS, cells were fixed in 2% paraformaldehyde for 30 min and analyzed.

[5] = test system: HIV-1 NL4-3balenv in IM-MDDCs; test: HIV-1 binding/entry in IM-MDDCs transfected with ITIM peptides (p24); format: cell-based; conditions: peptides inserted with Pro-Ject, NL4-3balenv 60 min; result in words
Method: (§1) FIG. 7A: Raji-CD4 cells were transduced with a retroviral vector expressing either a wild-type form of DCIR, a T6F mutant of DCIR, or a Y7F mutant of DCIR. Surface expression level of DCIR was assessed by flow cytometry using a combination of PE-labelled anti-DCIR antibody (dotted lines) and a control isotype-matched antibody (continuous lines). […] FIG. 7B: For the virus binding/entry assay shown in the left panel, the indicated cell lines were exposed to NL4-3. For the infection assay shown in the right panel, the same cells were exposed to NL4-3 for 2 hours at 37° C., and then maintained in culture for 9 days. FIG. 7C: IM-MDDCs were treated with Pro-Ject only, with a control peptide or an ITIM peptide, either not phosphorylated or phosphorylated on the tyrosine or threonine residue, during 5 min at 37° C. Next, cells were pulsed with NL4-3balenv for 60 min at 37° C. and washed extensively before measuring the p24 content (left panel). […] Cell-free culture supernatants were quantified by measuring the p24 content. […]
(§2) For assessing binding/entry, IM-MDDCs (3×10^5 cells in a final volume of 300 μl) transfected with one of the ITIM peptides were exposed to NL4-3balenv (30 ng of p24) for 60 min at 37° C. […] The p24 content was determined by ELISA. As for susceptibility of IM-MDDCs to HIV-1 infection, it was assessed by initially exposing 3×10^5 cells to NL4-3balenv (30 ng) for 2 hours at 37° C. […]

[6] = test system: HIV-1 NL4-3balenv in IM-MDDCs; test: HIV-1 infection of IM-MDDCs transfected with ITIM peptides (p24 in supernatants); format: cell-based; conditions: peptides inserted with Pro-Ject, NL4-3balenv 2 hours, culture up to 9 days; result in words
Method: as §1, §2

For `Cn1c2ccccc2c2c3c(c4c5ccccc5n(CCC#N)c4c21)CNC3=O` [Go6976], the HIV-1 binding/entry [1] was “play a role”.
`O=S(=O)(NCCNC/C=C/c1ccc(Br)cc1)c1cccc2cnccc12` [H89] was tested, and the Infection [2] was “Ø”, the Binding/entry [1] was “Ø” and the HIV-1 binding/entry [1] was “not participating”.
For `C/C(O)=C(\C#N)C(=O)Nc1cc(Br)ccc1Br` [LFM-A13], the Infection [2] was “Ø”, the Binding/entry [1] was “Ø” and the HIV-1 binding/entry [1] was “not involved”.
For `CC(=O)N[C@@H](CS)C(=O)O` [NAC, N-acetyl-L-cystein], the “HIV-1-mediated DCIR expression” value [3] was “inhibited but not completely”, the “HIV-1-induced expression of DCIR on the surface of CD4+ T cells” value ([3]; virus-infected cells also treated with NAC, n=3, 16.2±3.4% in HIV-1-infected cells without NAC) was 6.7±1.7% and the cell toxicity (CD4+ T cells) was “no toxicity”.
`COc1cccc(-c2cc(=O)c3ccccc3o2)c1N` [PD98059] was tested, and the HIV-1 binding/entry [1] was “significant decrease”.
For `CC(C)(C)n1nc(-c2ccc(Cl)cc2)c2c(N)ncnc21` [PP2], the HIV-1 binding/entry [1] was “decreased”.
With `Oc1cc(O)cc(/C=C/c2ccc(O)c(O)c2)c1` [Pic, piceatannol] the HIV-1 binding/entry [1] was “significantly decreases”.
With `C[S+]([O-])c1ccc(-c2nc(-c3ccncc3)c(-c3ccc(F)cc3)[nH]2)cc1` (stereo not drawn) [SB203580] the HIV-1 binding/entry [1] was “significant decrease”.
`COC(=O)CC(NC(=O)C(C)NC(=O)C(NC(=O)OCc1ccccc1)C(C)C)C(=O)CF` (stereo not drawn) [Z-VAD-FMK, Benzyloxycarbonyl-Val-Ala-Asp (OMe) fluoromethylketone] (Cbz-Val-Ala-Asp(OMe)-CH2F; configuration not given here) was tested, and the “HIV-1-mediated DCIR expression” value [3] was “partially reduced”, the cell toxicity (CD4+ T cells) was “no toxicity” and the “DCIR expression in activated CD4+ T cells” value ([4]; cells treated with both H2O2 (30 μM) and Z-VAD-FMK (50 nM, 1 h pretreatment), n=3) was 1.0±0.2%. For the same molecule, the “DCIR expression after H2O2 stimulation” value ([4]; pretreatment with Z-VAD-FMK, result in words) was “prevented”.
In the case of `CN[C@@H]1C[C@H]2O[C@@](C)([C@@H]1OC)n1c3ccccc3c3c4c(c5c6ccccc6n2c5c31)C(=O)NC4` [staurosporine], the DCIR expression ([4]; CD4+ T cells treated with inducer, H2O2 20 to 60 μM, result in words) is reported as “promoted”.
In the case of `C(=C\c1ccccc1)/c1ccccc1` [trans-stilbene], the HIV-1 binding/entry [1] is reported as “inability of the inactive analog trans-stilbene to induce a comparable decrease”.
With “TAMRA-EIT(PO3H2)YAEVRFKNEFKS-OH ({TAMRA}-EI[pT]YAEVRFKNEFKS-OH) [ITIM peptide phosphorylated on threonine]” the virus binding/entry [5] was “decrease” and the “virus replication / infection” value [6] was “decrease”.
In the case of “TAMRA-EITY(PO3H2)AEVRFKNES-OH ({TAMRA}-EIT[pY]AEVRFKNES-OH) [ITIM peptide phosphorylated on tyrosine]”, the virus binding/entry [5] is reported as “decrease” and the “virus replication / infection” value [6] is reported as “decrease”.
